In the supplement of paper PMC10307832:

Tests used:
Test in all cases: relative viability (nuclei count vs DMSO), 5 days (fraction); higher = more cells survive
Bleomycin + Linsitinib = compound: CC1=C(N=C(N=C1N)[C@H](CC(=O)N)NC[C@@H](C(=O)N)N)C(=O)N[C@@H]([C@H](C2=CN=CN2)OC3C(C(C(C(O3)CO)O)O)OC4C(C(C(C(O4)CO)O)OC(=O)N)O)C(=O)N[C@H](C)[C@H]([C@H](C)C(=O)N[C@@H]([C@@H](C)O)C(=O)NCCC5=NC(=CS5)C6=NC(=CS6)C(=O)NCCC[S+](C)C)O [Bleomycin] + C[C@]1(O)C[C@@H](c2nc(-c3ccc4ccc(-c5ccccc5)nc4c3)c3c(N)nccn32)C1 [Linsitinib] (partner 1 µM); conditions: main component drawn
Method in brief: (§1)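 Relative viability is defined as nuclei in treated wells over nuclei in vehicle wells. Duplicate plates were run and medians reported. Lung cancer cell lines in 1536-well plates were dosed by pin tool one day after seeding, with one drug or with a fixed anchor-drug dose plus five library-drug doses (not always all listed) in √10 steps, and nuclei were counted after 5 days.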

Bleomycin + Bortezomib = compound: CC1=C(N=C(N=C1N)[C@H](CC(=O)N)NC[C@@H](C(=O)N)N)C(=O)N[C@@H]([C@H](C2=CN=CN2)OC3C(C(C(C(O3)CO)O)O)OC4C(C(C(C(O4)CO)O)OC(=O)N)O)C(=O)N[C@H](C)[C@H]([C@H](C)C(=O)N[C@@H]([C@@H](C)O)C(=O)NCCC5=NC(=CS5)C6=NC(=CS6)C(=O)NCCC[S+](C)C)O [Bleomycin] + CC(C)C[C@H](NC(=O)[C@H](Cc1ccccc1)NC(=O)c1cnccn1)B(O)O [Bortezomib] (partner 0.002 µM); conditions: main component drawn
Method in brief: as §1

Etoposide + Palbociclib = compound: COc1cc([C@@H]2c3cc4c(cc3[C@@H](O[C@@H]3O[C@@H]5CO[C@@H](C)O[C@H]5[C@H](O)[C@H]3O)[C@H]3COC(=O)[C@H]23)OCO4)cc(OC)c1O [Etoposide] + CC(=O)c1c(C)c2cnc(Nc3ccc(N4CCNCC4)cn3)nc2n(C2CCCC2)c1=O [Palbociclib] (partner 0.5 µM)
Method in brief: as §1

Etoposide + Dasatinib = compound: COc1cc([C@@H]2c3cc4c(cc3[C@@H](O[C@@H]3O[C@@H]5CO[C@@H](C)O[C@H]5[C@H](O)[C@H]3O)[C@H]3COC(=O)[C@H]23)OCO4)cc(OC)c1O [Etoposide] + Cc1nc(Nc2ncc(C(=O)Nc3c(C)cccc3Cl)s2)cc(N2CCN(CCO)CC2)n1 [Dasatinib] (partner 0.075 µM)
Method in brief: as §1

Cell Line | relative viability (Bleomycin + Linsitinib; first compound 0.01 µM) | relative viability (Bleomycin + Linsitinib; first compound 0.03162 µM) | relative viability (Bleomycin + Linsitinib; first compound 0.1 µM) | relative viability (Bleomycin + Linsitinib; first compound 0.3162 µM) | relative viability (Bleomycin + Linsitinib; first compound 1 µM) | relative viability (Bleomycin + Bortezomib; first compound 0.01 µM) | relative viability (Bleomycin + Bortezomib; first compound 0.03162 µM) | relative viability (Bleomycin + Bortezomib; first compound 0.1 µM) | relative viability (Bleomycin + Bortezomib; first compound 0.3162 µM) | relative viability (Bleomycin + Bortezomib; first compound 1 µM) | relative viability (Etoposide + Palbociclib; first compound 0.01 µM) | relative viability (Etoposide + Palbociclib; first compound 0.03162 µM) | relative viability (Etoposide + Palbociclib; first compound 0.1 µM) | relative viability (Etoposide + Palbociclib; first compound 0.3162 µM) | relative viability (Etoposide + Palbociclib; first compound 1 µM) | relative viability (Etoposide + Dasatinib; first compound 0.01 µM) | relative viability (Etoposide + Dasatinib; first compound 0.03162 µM) | relative viability (Etoposide + Dasatinib; first compound 0.1 µM) | relative viability (Etoposide + Dasatinib; first compound 0.3162 µM) | relative viability (Etoposide + Dasatinib; first compound 1 µM)
NCI-H1299 | 0.879 | 0.978 | 0.854 | 0.481 | 0.245 | 0.963 | 0.994 | 0.95 | 0.435 | 0.412 | – | – | – | – | – | – | – | – | – | –
NCI-H1395 | 0.715 | 0.843 | 0.666 | 0.626 | 0.391 | – | – | – | – | – | 0.625 | 0.595 | 0.555 | 0.638 | 0.545 | 0.422 | 0.414 | 0.368 | 0.406 | 0.438
NCI-H1563 | 0.919 | 0.891 | 0.749 | 0.642 | 0.623 | 0.755 | 0.767 | 0.689 | 0.536 | 0.531 | – | – | – | – | – | 0.416 | 0.514 | 0.435 | 0.387 | 0.349
NCI-H1623 | – | – | – | – | – | – | – | – | – | – | – | – | – | – | – | 0.68 | 0.592 | 0.334 | 0.267 | 0.294
NCI-H1648 | – | – | – | – | – | – | – | – | – | – | – | 0.289 | 0.211 | 0.297 | 0.265 | – | – | – | – | –
NCI-H1650 | – | – | – | – | – | 0.2 | 0.216 | 0.194 | 0.167 | 0.172 | 0.376 | 0.36 | 0.26 | 0.199 | 0.168 | 0.302 | 0.381 | 0.315 | 0.211 | 0.127
NCI-H1703 | 1.06 | 0.639 | 0.517 | 0.321 | 0.19 | 0.328 | 0.276 | 0.245 | 0.134 | 0.125 | – | – | – | – | – | – | – | – | – | –
NCI-H1793 | 0.943 | 0.762 | 0.719 | 0.276 | 0.249 | – | – | – | – | – | – | 0.321 | 0.2 | 0.305 | 0.29 | 0.402 | 0.348 | – | 0.419 | 0.214
NCI-H1944 | 0.781 | 0.815 | 0.5 | 0.507 | 0.238 | – | – | – | – | – | 0.315 | 0.358 | 0.233 | 0.231 | 0.198 | 0.213 | 0.23 | 0.159 | 0.189 | 0.102
NCI-H2170 | – | – | – | – | – | – | – | – | – | – | 0.382 | 0.427 | – | 0.36 | 0.319 | 0.678 | 0.658 | 0.353 | 0.619 | 0.401
NCI-H2342 | – | – | – | – | – | – | – | – | – | – | 0.463 | 0.542 | 0.423 | 0.425 | 0.331 | 0.317 | 0.315 | 0.3 | 0.229 | 0.254
SK-MES-1 | 0.923 | 0.974 | 0.819 | 0.287 | 0.216 | – | – | – | – | – | 0.338 | 0.31 | 0.315 | 0.262 | 0.239 | 0.315 | 0.388 | 0.429 | 0.286 | 0.131
SW 900 | – | – | – | – | – | – | – | – | – | – | 0.585 | 0.503 | 0.593 | 0.492 | 0.263 | 0.62 | 0.659 | 0.395 | 0.591 | 0.147
